One block for each compound: values may come before it.
Assays:
Test in all cases: KINOMEscan competition binding
Conditions in all cases: compound 10.0 µM
FLT1 (human) = FLT1 (human) (UniProt P17948)
MAP2K1 (human) = MAP2K1 (human) (UniProt Q02750)
MAP3K9 (human) = MAP3K9 (human) (UniProt P80192)
PRKACB (human) = PRKACB (human) (UniProt P22694)
NLK (human) = NLK (human) (UniProt Q9UBE8)
PIK3CD (human) = PIK3CD (human) (UniProt O00329)
[1] = target: JAK2 JH1 catalytic (human) (UniProt O60674)
FGFR2 (human) = FGFR2 (human) (UniProt P21802)
ADCK3 (human) = ADCK3 (human) (UniProt Q8NI60)
DCLK2 (human) = DCLK2 (human) (UniProt Q8N568)
MAP3K11 (human) = MAP3K11 (human) (UniProt Q16584)
MAP3K10 (human) = MAP3K10 (human) (UniProt Q02779)
ROS1 (human) = ROS1 (human) (UniProt P08922)
TXK (human) = TXK (human) (UniProt P42681)
CAMK2G (human) = CAMK2G (human) (UniProt Q13555)
SRMS (human) = SRMS (human) (UniProt Q9H3Y6)
ABL1 (human) = ABL1 (human) (UniProt P00519)
PKN2 (human) = PKN2 (human) (UniProt Q16513)
MAP3K3 (human) = MAP3K3 (human) (UniProt Q99759)
LATS2 (human) = LATS2 (human) (UniProt Q9NRM7)
CSK (human) = CSK (human) (UniProt P41240)
DDR1 (human) = DDR1 (human) (UniProt Q08345)
DCLK1 (human) = DCLK1 (human) (UniProt O15075)
ADCK4 (human) = ADCK4 (human) (UniProt Q96D53)
MAPK3 (human) = MAPK3 (human) (UniProt P27361)
PRKCQ (human) = PRKCQ (human) (UniProt Q04759)
BMPR1A (human) = BMPR1A (human) (UniProt P36894)
[2] = tested on: EGFR (human), P00533 [P753S; 747-752 del]
RPS6KA5 KD1 (human) = RPS6KA5 KD1 (human) (UniProt O75582)
MAPK13 (human) = MAPK13 (human) (UniProt O15264)
MLTK (human) = MLTK (human) (UniProt Q9NYL2)
PAK6 (human) = PAK6 (human) (UniProt Q9NQU5)
[3] = tested on: ABL1 (human), P00519 [T315I]
MYO3B (human) = MYO3B (human) (UniProt Q8WXR4)
MAP4K1 (human) = MAP4K1 (human) (UniProt Q92918)
[4] = tested on: ABL1 (human), P00519 [Q252H]
NEK7 (human) = NEK7 (human) (UniProt Q8TDX7)
ANKK1 (human) = ANKK1 (human) (UniProt Q8NFD2)
PRKD2 (human) = PRKD2 (human) (UniProt Q9BZL6)
MST1R (human) = MST1R (human) (UniProt Q04912)
CDK15 (human) = CDK15 (human) (UniProt Q96Q40)
GSK3B (human) = GSK3B (human) (UniProt P49841)
Sequence of GSK3B (human) (P49841 whole entry, looked up): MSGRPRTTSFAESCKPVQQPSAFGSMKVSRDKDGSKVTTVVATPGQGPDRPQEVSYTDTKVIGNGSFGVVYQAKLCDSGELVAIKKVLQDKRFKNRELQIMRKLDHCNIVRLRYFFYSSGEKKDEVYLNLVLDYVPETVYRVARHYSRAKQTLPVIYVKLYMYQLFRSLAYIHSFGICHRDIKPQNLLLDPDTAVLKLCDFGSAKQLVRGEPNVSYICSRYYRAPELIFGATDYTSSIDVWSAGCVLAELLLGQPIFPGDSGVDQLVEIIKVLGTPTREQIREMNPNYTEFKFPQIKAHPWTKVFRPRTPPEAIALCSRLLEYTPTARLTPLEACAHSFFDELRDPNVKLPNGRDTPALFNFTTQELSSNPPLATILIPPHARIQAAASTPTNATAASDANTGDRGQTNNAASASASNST

Sequence of TXK (human) (P42681 whole entry, looked up): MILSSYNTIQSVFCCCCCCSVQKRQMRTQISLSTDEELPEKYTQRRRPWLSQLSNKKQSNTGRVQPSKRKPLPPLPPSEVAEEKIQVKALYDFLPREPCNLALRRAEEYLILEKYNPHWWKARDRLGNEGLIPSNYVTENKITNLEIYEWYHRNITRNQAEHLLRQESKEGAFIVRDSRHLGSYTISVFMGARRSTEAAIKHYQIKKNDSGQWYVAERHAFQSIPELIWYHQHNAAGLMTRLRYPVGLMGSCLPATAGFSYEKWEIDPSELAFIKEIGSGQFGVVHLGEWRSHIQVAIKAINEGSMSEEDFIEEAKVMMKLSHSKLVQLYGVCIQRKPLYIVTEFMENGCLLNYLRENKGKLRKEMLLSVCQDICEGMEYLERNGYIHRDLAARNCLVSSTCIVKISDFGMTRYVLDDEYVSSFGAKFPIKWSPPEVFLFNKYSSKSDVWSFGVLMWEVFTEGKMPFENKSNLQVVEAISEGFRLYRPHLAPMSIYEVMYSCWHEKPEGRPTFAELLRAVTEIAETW
Sequence of ADCK4 (human) (Q96D53 whole entry, looked up): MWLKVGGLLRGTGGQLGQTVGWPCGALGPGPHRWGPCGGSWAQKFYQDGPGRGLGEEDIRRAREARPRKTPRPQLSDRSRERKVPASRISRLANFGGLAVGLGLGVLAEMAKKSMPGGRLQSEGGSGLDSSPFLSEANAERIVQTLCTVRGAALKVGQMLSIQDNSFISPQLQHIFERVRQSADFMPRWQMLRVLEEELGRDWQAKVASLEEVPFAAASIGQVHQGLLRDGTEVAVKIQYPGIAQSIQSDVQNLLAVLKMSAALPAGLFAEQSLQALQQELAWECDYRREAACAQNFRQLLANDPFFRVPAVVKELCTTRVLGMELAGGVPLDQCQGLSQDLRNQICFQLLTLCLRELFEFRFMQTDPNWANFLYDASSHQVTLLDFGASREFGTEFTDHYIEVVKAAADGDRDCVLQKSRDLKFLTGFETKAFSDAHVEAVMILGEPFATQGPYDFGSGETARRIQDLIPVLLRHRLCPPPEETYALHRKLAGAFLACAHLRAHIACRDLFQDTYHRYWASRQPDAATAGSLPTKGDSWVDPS
Sequence of CDK15 (human) (Q96Q40 whole entry, looked up): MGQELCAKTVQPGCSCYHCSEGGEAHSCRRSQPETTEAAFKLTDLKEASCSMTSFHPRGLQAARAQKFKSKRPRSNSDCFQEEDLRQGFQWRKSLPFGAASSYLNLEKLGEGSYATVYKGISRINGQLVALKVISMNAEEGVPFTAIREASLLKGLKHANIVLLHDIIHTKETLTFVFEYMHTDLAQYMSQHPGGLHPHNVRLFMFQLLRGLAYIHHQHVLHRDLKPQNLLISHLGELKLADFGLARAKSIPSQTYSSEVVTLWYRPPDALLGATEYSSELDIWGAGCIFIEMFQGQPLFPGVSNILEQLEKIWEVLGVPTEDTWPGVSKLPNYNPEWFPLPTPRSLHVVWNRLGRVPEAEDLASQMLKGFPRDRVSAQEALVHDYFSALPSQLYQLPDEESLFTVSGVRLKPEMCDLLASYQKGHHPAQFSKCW
Sequence of NLK (human) (Q9UBE8 whole entry, looked up): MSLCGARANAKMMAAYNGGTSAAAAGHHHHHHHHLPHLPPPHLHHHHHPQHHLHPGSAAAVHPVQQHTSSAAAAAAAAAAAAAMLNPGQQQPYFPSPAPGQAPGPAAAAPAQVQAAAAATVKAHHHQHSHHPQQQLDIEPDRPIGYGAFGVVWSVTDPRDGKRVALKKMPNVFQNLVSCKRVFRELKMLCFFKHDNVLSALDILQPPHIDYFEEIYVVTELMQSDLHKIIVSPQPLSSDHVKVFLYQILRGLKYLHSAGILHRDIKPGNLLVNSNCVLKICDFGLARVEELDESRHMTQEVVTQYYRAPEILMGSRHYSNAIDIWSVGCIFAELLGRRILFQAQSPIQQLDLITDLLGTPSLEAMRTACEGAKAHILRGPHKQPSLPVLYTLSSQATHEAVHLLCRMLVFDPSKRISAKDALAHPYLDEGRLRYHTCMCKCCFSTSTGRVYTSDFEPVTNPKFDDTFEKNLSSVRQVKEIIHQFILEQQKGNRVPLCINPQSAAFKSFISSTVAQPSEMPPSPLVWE
Sequence of FGFR2 (human) (P21802 whole entry, looked up): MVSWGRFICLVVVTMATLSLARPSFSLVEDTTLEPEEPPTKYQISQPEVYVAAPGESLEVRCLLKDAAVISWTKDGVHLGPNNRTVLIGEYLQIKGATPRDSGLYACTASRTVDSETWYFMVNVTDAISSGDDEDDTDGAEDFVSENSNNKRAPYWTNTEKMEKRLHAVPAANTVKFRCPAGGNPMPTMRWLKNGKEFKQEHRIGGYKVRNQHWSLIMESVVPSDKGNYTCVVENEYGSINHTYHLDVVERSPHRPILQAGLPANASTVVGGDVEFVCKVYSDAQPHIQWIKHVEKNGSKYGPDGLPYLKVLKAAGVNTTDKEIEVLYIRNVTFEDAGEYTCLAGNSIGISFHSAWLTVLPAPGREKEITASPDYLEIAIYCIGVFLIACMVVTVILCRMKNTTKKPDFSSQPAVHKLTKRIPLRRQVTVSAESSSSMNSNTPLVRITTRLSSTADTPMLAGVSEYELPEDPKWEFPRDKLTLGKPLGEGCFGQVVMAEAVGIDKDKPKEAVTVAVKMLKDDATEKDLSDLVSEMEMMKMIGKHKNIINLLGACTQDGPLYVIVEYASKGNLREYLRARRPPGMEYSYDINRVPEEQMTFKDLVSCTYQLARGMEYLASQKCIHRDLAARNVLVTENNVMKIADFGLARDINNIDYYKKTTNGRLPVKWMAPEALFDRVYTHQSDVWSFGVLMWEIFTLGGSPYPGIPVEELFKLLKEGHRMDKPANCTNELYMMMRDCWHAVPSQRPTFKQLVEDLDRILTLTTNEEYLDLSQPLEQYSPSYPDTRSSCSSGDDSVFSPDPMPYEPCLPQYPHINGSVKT
Sequence of RPS6KA5 KD1 (human) (O75582 whole entry, looked up): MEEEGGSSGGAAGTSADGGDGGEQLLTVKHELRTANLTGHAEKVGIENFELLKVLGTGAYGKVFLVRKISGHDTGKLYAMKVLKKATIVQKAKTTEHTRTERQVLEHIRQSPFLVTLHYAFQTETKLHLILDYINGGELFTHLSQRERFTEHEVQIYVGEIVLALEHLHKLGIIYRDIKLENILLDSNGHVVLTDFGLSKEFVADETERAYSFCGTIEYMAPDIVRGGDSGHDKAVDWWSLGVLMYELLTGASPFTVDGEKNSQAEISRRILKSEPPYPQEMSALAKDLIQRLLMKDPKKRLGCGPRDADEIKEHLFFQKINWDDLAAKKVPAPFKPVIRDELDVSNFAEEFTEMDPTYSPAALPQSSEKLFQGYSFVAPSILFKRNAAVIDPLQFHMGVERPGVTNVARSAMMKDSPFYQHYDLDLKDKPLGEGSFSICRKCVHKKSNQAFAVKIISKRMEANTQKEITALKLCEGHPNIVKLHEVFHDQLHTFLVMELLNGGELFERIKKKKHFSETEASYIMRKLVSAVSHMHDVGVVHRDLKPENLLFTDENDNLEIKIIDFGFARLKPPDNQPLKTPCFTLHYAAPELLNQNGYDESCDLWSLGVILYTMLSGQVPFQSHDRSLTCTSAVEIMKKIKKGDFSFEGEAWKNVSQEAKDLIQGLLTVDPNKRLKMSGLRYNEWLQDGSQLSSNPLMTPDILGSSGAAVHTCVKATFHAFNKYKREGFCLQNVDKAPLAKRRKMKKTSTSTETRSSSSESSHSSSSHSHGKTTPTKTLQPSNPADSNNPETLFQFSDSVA
Sequence of DCLK1 (human) (O15075 whole entry, looked up): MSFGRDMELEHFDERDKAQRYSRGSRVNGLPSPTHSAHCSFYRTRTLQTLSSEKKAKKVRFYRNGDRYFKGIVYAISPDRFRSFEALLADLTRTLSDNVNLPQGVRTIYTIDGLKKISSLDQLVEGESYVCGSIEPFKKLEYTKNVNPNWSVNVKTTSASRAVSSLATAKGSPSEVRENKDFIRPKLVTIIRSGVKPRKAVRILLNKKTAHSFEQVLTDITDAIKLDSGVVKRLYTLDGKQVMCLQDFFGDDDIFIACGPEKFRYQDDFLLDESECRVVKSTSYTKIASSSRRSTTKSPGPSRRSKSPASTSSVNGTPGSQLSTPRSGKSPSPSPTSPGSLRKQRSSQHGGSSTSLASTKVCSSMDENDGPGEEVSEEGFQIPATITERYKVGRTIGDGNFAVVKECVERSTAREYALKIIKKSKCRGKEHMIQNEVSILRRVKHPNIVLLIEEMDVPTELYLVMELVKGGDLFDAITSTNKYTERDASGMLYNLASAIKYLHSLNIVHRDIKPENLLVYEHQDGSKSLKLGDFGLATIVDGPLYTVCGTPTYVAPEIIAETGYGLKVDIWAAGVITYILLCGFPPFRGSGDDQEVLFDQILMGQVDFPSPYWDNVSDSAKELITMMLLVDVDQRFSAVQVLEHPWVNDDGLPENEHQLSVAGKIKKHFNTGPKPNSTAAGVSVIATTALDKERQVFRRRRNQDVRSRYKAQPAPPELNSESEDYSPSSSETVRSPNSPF

kinase still bound, per cent of control (FLT1 (human)): 100% | kinase still bound, per cent of control (MAP2K1 (human)): 90% | kinase still bound, per cent of control (MAP3K9 (human)): 100% | kinase still bound, per cent of control (PRKACB (human)): 100% | kinase still bound, per cent of control (NLK (human)): 100% | kinase still bound, per cent of control (PIK3CD (human)): 48% | kinase still bound, per cent of control [1]: 34% | kinase still bound, per cent of control (FGFR2 (human)): 81% | kinase still bound, per cent of control (ADCK3 (human)): 100% | kinase still bound, per cent of control (DCLK2 (human)): 1% | kinase still bound, per cent of control (MAP3K11 (human)): 100% | kinase still bound, per cent of control (MAP3K10 (human)): 97% | kinase still bound, per cent of control (ROS1 (human)): 100% | kinase still bound, per cent of control (TXK (human)): 72% | kinase still bound, per cent of control (CAMK2G (human)): 57% | kinase still bound, per cent of control (SRMS (human)): 76% | kinase still bound, per cent of control (ABL1 (human)): 79% | kinase still bound, per cent of control (PKN2 (human)): 90% | kinase still bound, per cent of control (MAP3K3 (human)): 72% | kinase still bound, per cent of control (LATS2 (human)): 100% | kinase still bound, per cent of control (CSK (human)): 88% | kinase still bound, per cent of control (DDR1 (human)): 100% | kinase still bound, per cent of control (DCLK1 (human)): 1.4% | kinase still bound, per cent of control (ADCK4 (human)): 78% | kinase still bound, per cent of control (MAPK3 (human)): 95% | kinase still bound, per cent of control (PRKCQ (human)): 92% | kinase still bound, per cent of control (BMPR1A (human)): 100% | kinase still bound, per cent of control [2]: 82% | kinase still bound, per cent of control (RPS6KA5 KD1 (human)): 86% | kinase still bound, per cent of control (MAPK13 (human)): 71% | kinase still bound, per cent of control (MLTK (human)): 97% | kinase still bound, per cent of control (PAK6 (human)): 74% | kinase still bound, per cent of control [3]: 66% | kinase still bound, per cent of control (MYO3B (human)): 52% | kinase still bound, per cent of control (MAP4K1 (human)): 82% | kinase still bound, per cent of control [4]: 90% | kinase still bound, per cent of control (NEK7 (human)): 93% | kinase still bound, per cent of control (ANKK1 (human)): 25% | kinase still bound, per cent of control (PRKD2 (human)): 9.2% | kinase still bound, per cent of control (MST1R (human)): 76% | kinase still bound, per cent of control (CDK15 (human)): 92% | kinase still bound, per cent of control (GSK3B (human)): 97%
Structure (SMILES): COc1cc(N2CCN(C)CC2)ccc1Nc1ncc2c(n1)N(C)c1sccc1C(=O)N2C

kinase still bound, per cent of control (FLT1 (human)): 100% | kinase still bound, per cent of control (MAP2K1 (human)): 100% | kinase still bound, per cent of control (MAP3K9 (human)): 100% | kinase still bound, per cent of control (PRKACB (human)): 100% | kinase still bound, per cent of control (NLK (human)): 100% | kinase still bound, per cent of control (PIK3CD (human)): 100% | kinase still bound, per cent of control [1]: 6.2% | kinase still bound, per cent of control (FGFR2 (human)): 100% | kinase still bound, per cent of control (ADCK3 (human)): 100% | kinase still bound, per cent of control (DCLK2 (human)): 22% | kinase still bound, per cent of control (MAP3K11 (human)): 100% | kinase still bound, per cent of control (MAP3K10 (human)): 99% | kinase still bound, per cent of control (ROS1 (human)): 100% | kinase still bound, per cent of control (TXK (human)): 100% | kinase still bound, per cent of control (CAMK2G (human)): 100% | kinase still bound, per cent of control (SRMS (human)): 96% | kinase still bound, per cent of control (ABL1 (human)): 85% | kinase still bound, per cent of control (PKN2 (human)): 78% | kinase still bound, per cent of control (MAP3K3 (human)): 100% | kinase still bound, per cent of control (LATS2 (human)): 100% | kinase still bound, per cent of control (CSK (human)): 100% | kinase still bound, per cent of control (DDR1 (human)): 100% | kinase still bound, per cent of control (DCLK1 (human)): 24% | kinase still bound, per cent of control (ADCK4 (human)): 100% | kinase still bound, per cent of control (MAPK3 (human)): 100% | kinase still bound, per cent of control (PRKCQ (human)): 100% | kinase still bound, per cent of control (BMPR1A (human)): 100% | kinase still bound, per cent of control [2]: 100% | kinase still bound, per cent of control (RPS6KA5 KD1 (human)): 87% | kinase still bound, per cent of control (MAPK13 (human)): 90% | kinase still bound, per cent of control (MLTK (human)): 100% | kinase still bound, per cent of control (PAK6 (human)): 100% | kinase still bound, per cent of control [3]: 85% | kinase still bound, per cent of control (MYO3B (human)): 93% | kinase still bound, per cent of control (MAP4K1 (human)): 98% | kinase still bound, per cent of control [4]: 100% | kinase still bound, per cent of control (NEK7 (human)): 100% | kinase still bound, per cent of control (ANKK1 (human)): 28% | kinase still bound, per cent of control (PRKD2 (human)): 100% | kinase still bound, per cent of control (MST1R (human)): 93% | kinase still bound, per cent of control (CDK15 (human)): 88% | kinase still bound, per cent of control (GSK3B (human)): 79%
Structure (SMILES): CN1CCN(c2ccc(C(=O)Nc3ncc4c(n3)N(C)c3ccccc3C(=O)N4C)cc2)CC1

kinase still bound, per cent of control (FLT1 (human)): 94% | kinase still bound, per cent of control (MAP2K1 (human)): 100% | kinase still bound, per cent of control (MAP3K9 (human)): 91% | kinase still bound, per cent of control (PRKACB (human)): 100% | kinase still bound, per cent of control (NLK (human)): 74% | kinase still bound, per cent of control (PIK3CD (human)): 58% | kinase still bound, per cent of control [1]: 1.3% | kinase still bound, per cent of control (FGFR2 (human)): 63% | kinase still bound, per cent of control (ADCK3 (human)): 100% | kinase still bound, per cent of control (DCLK2 (human)): 0.6% | kinase still bound, per cent of control (MAP3K11 (human)): 100% | kinase still bound, per cent of control (MAP3K10 (human)): 100% | kinase still bound, per cent of control (ROS1 (human)): 35% | kinase still bound, per cent of control (TXK (human)): 85% | kinase still bound, per cent of control (CAMK2G (human)): 100% | kinase still bound, per cent of control (SRMS (human)): 87% | kinase still bound, per cent of control (ABL1 (human)): 3.2% | kinase still bound, per cent of control (PKN2 (human)): 92% | kinase still bound, per cent of control (MAP3K3 (human)): 0.35% | kinase still bound, per cent of control (LATS2 (human)): 100% | kinase still bound, per cent of control (CSK (human)): 91% | kinase still bound, per cent of control (DDR1 (human)): 68% | kinase still bound, per cent of control (DCLK1 (human)): 1.8% | kinase still bound, per cent of control (ADCK4 (human)): 78% | kinase still bound, per cent of control (MAPK3 (human)): 100% | kinase still bound, per cent of control (PRKCQ (human)): 92% | kinase still bound, per cent of control (BMPR1A (human)): 61% | kinase still bound, per cent of control [2]: 100% | kinase still bound, per cent of control (RPS6KA5 KD1 (human)): 100% | kinase still bound, per cent of control (MAPK13 (human)): 100% | kinase still bound, per cent of control (MLTK (human)): 100% | kinase still bound, per cent of control (PAK6 (human)): 100% | kinase still bound, per cent of control [3]: 3.6% | kinase still bound, per cent of control (MYO3B (human)): 73% | kinase still bound, per cent of control (MAP4K1 (human)): 64% | kinase still bound, per cent of control [4]: 2.1% | kinase still bound, per cent of control (NEK7 (human)): 100% | kinase still bound, per cent of control (ANKK1 (human)): 100% | kinase still bound, per cent of control (PRKD2 (human)): 99% | kinase still bound, per cent of control (MST1R (human)): 94% | kinase still bound, per cent of control (CDK15 (human)): 100% | kinase still bound, per cent of control (GSK3B (human)): 88%
Structure (SMILES): CN1C(=O)c2ccccc2N(C)c2nc(Nc3ccc(N4CCC(O)CC4)cc3)ncc21
